Source: patent US20230293565A1, “USE OF WNT/BETA-CATENIN PATHWAY INHIBITORS TO BLOCK REPLICATION OF SARS-COV-2 AND OTHER PATHOGENIC VIRUSES” (THE GOVERNORS OF THE UNIVERSITY OF ALBERTA, priority 2020, published 2023)

Test system: SARS-CoV-2 variants (D614G, UK B.1.1.7, SA B.1.351, Brazil P.1)
Assay type: cell-based

Row | SMILES | reduction of SARS-CoV-2 variant titers
1 | O=C([O-])CCN1C(=O)/C(=C/c2ccc(-c3ccc([N+](=O)[O-])cc3)o2)SC1=S.[K+] [KYA1797K] | 85-96%
2 | Cc1cc(/C=C/c2ccc3cc(N(C)C)ccc3[n+]2C)c(C)n1-c1ccccc1 [Pyrvinium] | 77-96%
